Data: US11963977B2, “Generating pluripotent cells de novo” (VCell Therapeutics, Inc., priority 2012, dated 2024)

What was measured:
Assay type in all cases: cell-based, mouse
Details in all cases: 1 week-old, after 1 week of stress treatment, SLO 10 μg/mL, ATP 2.4 mM, Ca 2 mM CaCl2
Lung somatic cells = assay: Percent of cells demonstrating pluripotent phenotype after stress treatment, lung cells
Description: (§1) Stress alteration of mature somatic cells procured from various adult tissues. To examine whether ACCs could be generated not only mature lymphocytes but also other types of somatic cells, brain, skin, muscle, fat, bone marrow, lung and liver were harvested from Oct4-GFP (GOF) mice^8. Cells were isolated from the tissue samples, dissociated into single cells, and treated with different physical and or chemical stress conditions. The efficiency of the process to alter the cells differed as a function of both the source of cells and the stress condition(s) to which the cells were exposed (FIG. 7A). The ability of stress to alter mature cells to express Oct4, differed depending on the derivation of cells, but stress was able to alter cells to express Oct4 to some degree in mature cells derived from all three germ layers (FIG. 7A). ACC colonies derived from any mature tissue expressed pluripotent markers, E-cadherin, Nanog, PCAM-1 and AP (data not shown), and ES specific marker genes (FIG. 7B). Significant physical and chemical stresses altered mature somatic cells to revert to a stem cell state, despite of the source of tissues and derivation of the germ layers.
(§2) Exposure to external stimuli—stress treatment. […]
(§3) Fluorescence-Activated Cell Sorting and Flow Cytometry. […] Cells were sorted on a BD FACSAria SORP and analyzed on a BD LSRII with BD FACSDiva Software (BD Biosciences).

Brain somatic cells = assay: Percent of cells demonstrating pluripotent phenotype after stress treatment, brain cells
Fibroblast = assay: Percent of cells demonstrating pluripotent phenotype after stress treatment, fibroblasts
Description: as §1, §2, §3

Fat somatic cells = assay: Percent of cells demonstrating pluripotent phenotype after stress treatment, fat cells
Description: as §1, §2, §3

[1] = system: Bone Marrow somatic cells; assay: Percent of cells demonstrating pluripotent phenotype after stress treatment, bone marrow cells
Description: as §1, §2, §3

Muscle somatic cells = assay: Percent of cells demonstrating pluripotent phenotype after stress treatment, muscle cells
Description: as §1, §2, §3

## streptolysin O [SLO]
Lung somatic cells
  Percent of cells demonstrating pluripotent phenotype: 18.4%
Brain somatic cells
  Percent of cells demonstrating pluripotent phenotype: 10.3%
Fibroblast
  Percent of cells demonstrating pluripotent phenotype: 15.2%
Fat somatic cells
  Percent of cells demonstrating pluripotent phenotype: 32.8%
[1]
  Percent of cells demonstrating pluripotent phenotype: 13.2%
Muscle somatic cells
  Percent of cells demonstrating pluripotent phenotype: 20.5%
